Read-outs that look alike come from different tables or passages of the source.
How the values were obtained:
[1] = clinical; format: in vivo, human
Method: (§1) The highest doses tested in healthy subjects were for a 30-mg single dose and a 10-mg multiple dose (once daily nighttime dose for 14 days). The highest dose tested in subjects with insomnia was 10 mg.

[2] = clinical; format: in vivo, human; conditions: for mean fraction of dose excreted unchanged in urine over 48 hours (Fe48): day 1; for mean fraction of dose excreted unchanged in urine over 24 hours (Fe24): day 16
[3] = not given; remark: listed apart in the source
[4] = tested on: healthy subjects and subjects with insomnia; format: in vivo, human
Method: as §1
The most frequent treatment-emergent adverse event (TEAEs) experienced by subjects was somnolence.

[5] = tested on: healthy, non-dependent, recreational sedative users; test: Human abuse potential study, adverse events and tolerability; format: in vivo; conditions: for Amnesia / Ataxia / Diplopia / Dizziness / Euphoric mood / Headache / Hiccups / Nausea / Somnolence / Vision blurred: N = 50
Method: Adverse events were coded to MedDRA terms. Data for AEs were analyzed using the treatment-emergent signs and symptoms (TESS) philosophy. Treatment-emergent signs and symptoms are defined as AEs that: • Emerge during treatment, having been absent at pretreatment; or • Reemerge during treatment, having been present at pretreatment but stopped prior to treatment; or • Worsen in intensity during treatment relative to the pretreatment state, when the AE is continuous.
Subjects were counted only once in the incidence count for a specific MedDRA Preferred Term, although a MedDRA Preferred Term might be reported more than once for a particular subject. Separate summaries will be provided for Treatment-emergent AEs (“TEAEs”) by maximum intensity (mild, moderate, severe) and relationship (yes, no) to study drug. A TEAE was considered related to study drug if the investigator reported the event to be “definitely, probably, possibly, or unlikely” related to treatment on the CRF.

[6] = tested on: subjects suffering from the Insomnia Disorder adult insomnia; format: in vivo, human
Method: Following the evening-time dosing with study drug, subjects underwent eight hours of continuous PSG recording. Next-day residual effects were assessed by the DSST and the KSS evaluation, collected in that order, starting at approximately 30 minutes after “lights-on.” All tests were administered in the clinical unit, beginning 30 minutes after lights-on and periodically thereafter for approximately 16 hours post-lights-off, following completion of PSG recording. Each subject also completed a post-sleep questionnaire once after lights-on so that subjective impressions could be assessed about the “quality” and “quantity” of their sleep. Before the second night dosing in each dosing period, subjects were evaluated for any residual sleepiness. […] Subjects remained in the clinic until residual symptoms were minimized.
The well-known KSS measures, subjectively, the level of a subject's sleepiness at a specific time of the day and was therefore useful as another indication of next day residual effects, if any. The KSS comprised a 9-step scale (ranging from, e.g., “extremely alert” (assigned 1 point) to alert (assigned 3 points) to “neither sleepy nor alert” (assigned 5 points) to “sleepy” (assigned 7 points) to “extremely sleepy” (assigned 9 points)) that characterized sleepiness at a particular time during the day (within 5 minutes of the assessment).
In a paper-and-pencil evaluation, each subject checked a box corresponding to the point of the scale that best characterized their state of drowsiness experienced during the preceding 5 minutes. The KSS evaluation followed the DSST after each night of the baseline visit (Visit 2) and after each night of Dosing Periods 1-5 according to the schedule set out in the previous example.
The KSS evaluation results shown, other than for the baseline, are the mean results obtained from the KSS evaluation scores following all nights of Dosing Periods 1-5 for the indicated dose. The KSS evaluation results for the baseline are the mean results obtained following the first and second nights of the baseline visit. Note that for clarity of display purposes, in FIG. 7 many of the test results at each time period, e.g., at approximately ½ hour after lights-on/9 hours post-dosing, were staggered arbitrarily away from the actual time when the test was conducted.

[7] = 0.2 mg aqueous suspension (N =24)
[8] = 0.6 mg aqueous suspension (N =24)
[9] = 2.0 mg aqueous suspension (N =23)
[10] = 6.0 mg aqueous suspension (N =25)

O=C(O)c1nc2ccccc2n([C@H]2C[C@H]3CCC[C@@H](C2)N3C2CC3CCCC(C3)C2)c1=O (some centres unmarked) [Compound (1C)]
major elimination pathway ([1]; human): Renal elimination
major metabolite in human plasma ([1]; human plasma): No major metabolite has been identified
renal clearance (adjusted by plasma protein binding) compared with glomerular filtration rate ([1]; human, in vivo): higher than the human glomerular filtration rate
Tmax ([1]; human, in vivo, po): ~1.5 h
half-life ([1]; human, in vivo, po): 2 to 3 h
dose proportionality of exposure ([1]; once a day dosing for 2 weeks): approximately dose-proportional exposure up to 10 mg
dose proportionality of exposure ([1]; single oral administration): approximately dose-proportional exposure up to 10 mg
unchanged drug recovered in urine ([1]; within 48 hours): 80-100%
Ae, Mean [7]: 0.2232 mg
Fe, Mean (fraction of dose excreted unchanged in urine over 24 hours) [7]: 111.60%
Ae, Mean [8]: 0.6891 mg
Fe, Mean (fraction of dose excreted unchanged in urine over 24 hours) [8]: 114.84%
Ae, Mean [9]: 2.165 mg
Fe, Mean (fraction of dose excreted unchanged in urine over 24 hours) [9]: 108.26%
Ae, Mean [10]: 6.653 mg
Fe, Mean (fraction of dose excreted unchanged in urine over 24 hours) [10]: 110.88%
mean fraction of dose excreted unchanged in urine over 48 hours (Fe48) ([2]; 0.6 mg): 96%
mean fraction of dose excreted unchanged in urine over 24 hours (Fe24) ([2]; 0.6 mg): 90%
mean fraction of dose excreted unchanged in urine over 48 hours (Fe48) ([2]; 2 mg): 100%
mean fraction of dose excreted unchanged in urine over 24 hours (Fe24) ([2]; 2 mg): 102%
mean fraction of dose excreted unchanged in urine over 48 hours (Fe48) ([2]; 10 mg): 84%
mean fraction of dose excreted unchanged in urine over 24 hours (Fe24) ([2]; 10 mg): 81%
time of urinary excretion of most of the unchanged compound ([2]; across the dose range, days 1 and 16): during the first 8 hours
CL renal ([2]; human, in vivo, all dose levels, days 1 and 16, read-out: mean CLr): 274 to 354 mL/min
Mean % Dose Excreted Unchanged ([3]; Cohort 1, 3 mg): 89%
Mean Total Amount Excreted Unchanged ([3]; Cohort 1, 3 mg): 2.66 mg
Mean % Dose Excreted Unchanged ([3]; Cohort 2, 10 mg): 70%
Mean Total Amount Excreted Unchanged ([3]; Cohort 2, 10 mg): 6.95 mg
Mean % Dose Excreted Unchanged ([3]; Cohort 3, 30 mg): 28%
Mean Total Amount Excreted Unchanged ([3]; Cohort 3, 30 mg): 8.37 mg
tolerability ([4]; 6 mg, nighttime dosing, healthy subjects and those with insomnia): well tolerated
safety and tolerability ([4]; across all tested dose levels): safe and well tolerated
serious adverse events (SAEs) ([4]; across all tested dose levels): no serious adverse events
most frequent treatment-emergent adverse event ([4]; completed clinical studies): somnolence
vital signs and electrocardiograms (ECGs) ([4]; completed clinical studies): no clinically significant findings
next day residual effects ([4]; dose equal or lower than 2 mg, after 8 hours post dosing): dose-dependent and generally decreased (back to placebo levels)
laboratory findings ([4]; including crystalluria or hematuria): No concerning laboratory findings
AE profile compared with triazolam ([5]; 1 mg): more preferable AE profile than triazolam
Amnesia ([5]; 1 mg): 0 n (%)
Ataxia ([5]; 1 mg): 1 (2) n (%)
Diplopia ([5]; 1 mg): 0 n (%)
Dizziness ([5]; 1 mg): 2 (4) n (%)
Euphoric mood ([5]; 1 mg): 0 n (%)
Headache ([5]; 1 mg): 5 (10) n (%)
Hiccups ([5]; 1 mg): 0 n (%)
Nausea ([5]; 1 mg): 1 (2) n (%)
Somnolence ([5]; 1 mg): 20 (40) n (%)
Vision blurred ([5]; 1 mg): 0 n (%)
AE profile compared with triazolam ([5]; 6 mg): AE profile than triazolam, and Compound (1C) at 6 and 10 mg doses had similar profiles as triazolam
certain AE results (ataxia, hiccups, amnesia, diplopia) compared with triazolam at therapeutic doses ([5]; 6 mg (supratherapeutic dose)): superior to triazolam
Amnesia ([5]; 6 mg): 0 n (%)
Ataxia ([5]; 6 mg): 7 (14) n (%)
Diplopia ([5]; 6 mg): 0 n (%)
Dizziness ([5]; 6 mg): 3 (6) n (%)
Euphoric mood ([5]; 6 mg): 1 (2) n (%)
Headache ([5]; 6 mg): 2 (4) n (%)
Hiccups ([5]; 6 mg): 0 n (%)
Nausea ([5]; 6 mg): 2 (4) n (%)
Somnolence ([5]; 6 mg): 45 (90) n (%)
Vision blurred ([5]; 6 mg): 2 (4) n (%)
AE profile compared with triazolam ([5]; 10 mg): AE profile than triazolam, and Compound (1C) at 6 and 10 mg doses had similar profiles as triazolam
certain AE results (ataxia, hiccups, amnesia, diplopia) compared with triazolam at therapeutic doses ([5]; 10 mg (supratherapeutic dose)): superior to triazolam
Amnesia ([5]; 10 mg): 0 n (%)
Ataxia ([5]; 10 mg): 13 (26) n (%)
Diplopia ([5]; 10 mg): 2 (4) n (%)
Dizziness ([5]; 10 mg): 5 (10) n (%)
Euphoric mood ([5]; 10 mg): 1 (2) n (%)
Headache ([5]; 10 mg): 2 (4) n (%)
Hiccups ([5]; 10 mg): 0 n (%)
Nausea ([5]; 10 mg): 2 (4) n (%)
Somnolence ([5]; 10 mg): 47 (94) n (%)
Vision blurred ([5]; 10 mg): 3 (6) n (%)
safety and tolerability ([5]; doses 1, 6 and 10 mg): well tolerated
next day residual effects by mean KSS evaluation results vs placebo ([6]; 0.5 mg, about 9 to about 16 hours post-dosing): no next day residual effects
next day residual effects by mean KSS evaluation results vs placebo ([6]; 1.0 mg, about 9 to about 16 hours post-dosing): no next day residual effects
next day residual effects by mean KSS evaluation results vs placebo ([6]; 3.0 mg, each of the testing times): some next day residual effects
next day residual effects by mean KSS evaluation results vs placebo ([6]; 6.0 mg, each of the testing times): some next day residual effects

From patent publication US11576913B2 (priority 2018, dated 2023)
